# Laboratory results published in PubChem BioAssay (NCI).
#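 Values below derive from 48-hour exposures of cells grown in 96-well plates, with endpoints linearly interpolated between the two concentrations bracketing the appropriate inhibition level. Here, GI50 denotes the concentration required for 50% inhibition of growth. TGI denotes the concentration required for complete inhibition of growth.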
# Key:
# Assay in all cases: NCI anticancer screen, dose series, 48 h
# 786-0 renal = test system: 786-0 renal
# A498 renal = test system: A498 renal
# A549 NSCLC = test system: A549 NSCLC
# ACHN renal = test system: ACHN renal
# BT-549 breast = test system: BT-549 breast
# CAKI-1 renal = test system: CAKI-1 renal
# CCRF-CEM leukemia = test system: CCRF-CEM leukemia
# COLO 205 colon = test system: COLO 205 colon
# DU-145 prostate = test system: DU-145 prostate
# EKVX NSCLC = test system: EKVX NSCLC
# HCC-2998 colon = test system: HCC-2998 colon
# HCT-116 colon = test system: HCT-116 colon
# HCT-15 colon = test system: HCT-15 colon
# HL-60(TB) leukemia = test system: HL-60(TB) leukemia
# HOP-62 NSCLC = test system: HOP-62 NSCLC
# HOP-92 NSCLC = test system: HOP-92 NSCLC
# HS 578T breast = test system: HS 578T breast
# HT29 colon = test system: HT29 colon
# IGROV1 ovarian = test system: IGROV1 ovarian
# K-562 leukemia = test system: K-562 leukemia
# KM12 colon = test system: KM12 colon
# LOX IMVI melanoma = test system: LOX IMVI melanoma
# M14 melanoma = test system: M14 melanoma
# MALME-3M melanoma = test system: MALME-3M melanoma
# MCF7 breast = test system: MCF7 breast
# MDA-MB-231 breast = test system: MDA-MB-231 breast
# MDA-MB-435 = test system: MDA-MB-435
# MOLT-4 leukemia = test system: MOLT-4 leukemia
# NCI-H226 lung = test system: NCI-H226 lung
# NCI-H23 lung = test system: NCI-H23 lung
# NCI-H460 lung = test system: NCI-H460 lung
# NCI-H522 lung = test system: NCI-H522 lung
# NCI/ADR-RES ovarian = test system: NCI/ADR-RES ovarian
# OVCAR-3 ovarian = test system: OVCAR-3 ovarian
# OVCAR-4 ovarian = test system: OVCAR-4 ovarian
# OVCAR-5 ovarian = test system: OVCAR-5 ovarian
# OVCAR-8 ovarian = test system: OVCAR-8 ovarian
# PC-3 prostate = test system: PC-3 prostate
# RPMI-8226 leukemia = test system: RPMI-8226 leukemia
# RXF 393 renal = test system: RXF 393 renal
# SF-268 CNS = test system: SF-268 CNS
# SF-295 CNS = test system: SF-295 CNS
# SF-539 CNS = test system: SF-539 CNS
# SK-MEL-2 melanoma = test system: SK-MEL-2 melanoma
# SK-MEL-28 melanoma = test system: SK-MEL-28 melanoma
# SK-MEL-5 melanoma = test system: SK-MEL-5 melanoma
# SK-OV-3 ovarian = test system: SK-OV-3 ovarian
# SN12C renal = test system: SN12C renal
# SNB-19 CNS = test system: SNB-19 CNS
# SNB-75 CNS = test system: SNB-75 CNS
# SR leukemia = test system: SR leukemia
# SW-620 colon = test system: SW-620 colon
# T-47D breast = test system: T-47D breast
# TK-10 renal = test system: TK-10 renal
# U251 CNS = test system: U251 CNS
# UACC-257 melanoma = test system: UACC-257 melanoma
# UACC-62 melanoma = test system: UACC-62 melanoma
# UO-31 renal = test system: UO-31 renal
compound,measurement,setting,value
O=Nc1c(O)c2ccccc2c2ccccc12,GI50,786-0 renal,2840 nM
same,TGI,786-0 renal,7040 nM
same,GI50,A498 renal,1600 nM
same,TGI,A498 renal,3070 nM
same,GI50,A549 NSCLC,1630 nM
same,TGI,A549 NSCLC,3130 nM
same,GI50,ACHN renal,1020 nM
same,TGI,ACHN renal,7100 nM
same,GI50,BT-549 breast,1250 nM
same,TGI,BT-549 breast,2550 nM
same,GI50,CAKI-1 renal,2950 nM
same,TGI,CAKI-1 renal,9000 nM
same,GI50,CCRF-CEM leukemia,1250 nM
same,TGI,CCRF-CEM leukemia,> 100000 nM
same,GI50,COLO 205 colon,1920 nM
same,TGI,COLO 205 colon,3460 nM
same,GI50,DU-145 prostate,961 nM
same,TGI,DU-145 prostate,2230 nM
same,GI50,EKVX NSCLC,1700 nM
same,TGI,EKVX NSCLC,3320 nM
same,GI50,HCC-2998 colon,1910 nM
same,TGI,HCC-2998 colon,3700 nM
same,GI50,HCT-116 colon,371 nM
same,TGI,HCT-116 colon,1330 nM
same,GI50,HCT-15 colon,398 nM
same,TGI,HCT-15 colon,2400 nM
same,GI50,HL-60(TB) leukemia,2470 nM
same,TGI,HL-60(TB) leukemia,7970 nM
same,GI50,HOP-62 NSCLC,768 nM
same,TGI,HOP-62 NSCLC,2410 nM
same,GI50,HOP-92 NSCLC,2320 nM
same,TGI,HOP-92 NSCLC,4570 nM
same,GI50,HS 578T breast,2000 nM
same,TGI,HS 578T breast,5650 nM
same,GI50,HT29 colon,2830 nM
same,TGI,HT29 colon,7880 nM
same,GI50,IGROV1 ovarian,1830 nM
same,TGI,IGROV1 ovarian,3510 nM
same,GI50,K-562 leukemia,505 nM
same,TGI,K-562 leukemia,> 100000 nM
same,GI50,KM12 colon,1760 nM
same,TGI,KM12 colon,3340 nM
same,GI50,LOX IMVI melanoma,294 nM
same,TGI,LOX IMVI melanoma,1060 nM
same,GI50,M14 melanoma,446 nM
same,TGI,M14 melanoma,1600 nM
same,GI50,MALME-3M melanoma,1470 nM
same,TGI,MALME-3M melanoma,3030 nM
same,GI50,MCF7 breast,1460 nM
same,TGI,MCF7 breast,4110 nM
same,GI50,MDA-MB-231 breast,849 nM
same,TGI,MDA-MB-231 breast,5250 nM
same,GI50,MDA-MB-435,179 nM
same,TGI,MDA-MB-435,317 nM
same,GI50,MOLT-4 leukemia,2130 nM
same,TGI,MOLT-4 leukemia,> 100000 nM
same,GI50,NCI-H226 lung,2030 nM
same,TGI,NCI-H226 lung,3830 nM
same,GI50,NCI-H23 lung,464 nM
same,TGI,NCI-H23 lung,3860 nM
same,GI50,NCI-H460 lung,1060 nM
same,TGI,NCI-H460 lung,2490 nM
same,GI50,NCI-H522 lung,1260 nM
same,TGI,NCI-H522 lung,3580 nM
same,GI50,NCI/ADR-RES ovarian,387 nM
same,TGI,NCI/ADR-RES ovarian,2950 nM
same,GI50,OVCAR-3 ovarian,754 nM
same,TGI,OVCAR-3 ovarian,2450 nM
same,GI50,OVCAR-4 ovarian,198 nM
same,TGI,OVCAR-4 ovarian,480 nM
same,GI50,OVCAR-5 ovarian,1940 nM
same,TGI,OVCAR-5 ovarian,4530 nM
same,GI50,OVCAR-8 ovarian,653 nM
same,TGI,OVCAR-8 ovarian,3880 nM
same,GI50,PC-3 prostate,633 nM
same,TGI,PC-3 prostate,2730 nM
same,GI50,RPMI-8226 leukemia,1200 nM
same,TGI,RPMI-8226 leukemia,> 21900 nM
same,GI50,RXF 393 renal,1720 nM
same,TGI,RXF 393 renal,3230 nM
same,GI50,SF-268 CNS,1430 nM
same,TGI,SF-268 CNS,3750 nM
same,GI50,SF-295 CNS,1640 nM
same,TGI,SF-295 CNS,3500 nM
same,GI50,SF-539 CNS,379 nM
same,TGI,SF-539 CNS,1600 nM
same,GI50,SK-MEL-2 melanoma,1800 nM
same,TGI,SK-MEL-2 melanoma,3990 nM
same,GI50,SK-MEL-28 melanoma,1680 nM
same,TGI,SK-MEL-28 melanoma,3070 nM
same,GI50,SK-MEL-5 melanoma,560 nM
same,TGI,SK-MEL-5 melanoma,1770 nM
same,GI50,SK-OV-3 ovarian,2480 nM
same,TGI,SK-OV-3 ovarian,6270 nM
same,GI50,SN12C renal,449 nM
same,TGI,SN12C renal,1880 nM
same,GI50,SNB-19 CNS,1130 nM
same,TGI,SNB-19 CNS,2550 nM
same,GI50,SNB-75 CNS,1510 nM
same,TGI,SNB-75 CNS,2920 nM
same,GI50,SR leukemia,1070 nM
same,TGI,SR leukemia,64200 nM
same,GI50,SW-620 colon,1200 nM
same,TGI,SW-620 colon,3190 nM
same,GI50,T-47D breast,1320 nM
same,TGI,T-47D breast,3570 nM
same,GI50,TK-10 renal,2700 nM
same,TGI,TK-10 renal,7900 nM
same,GI50,U251 CNS,496 nM
same,TGI,U251 CNS,2090 nM
same,GI50,UACC-257 melanoma,476 nM
same,TGI,UACC-257 melanoma,1750 nM
same,GI50,UACC-62 melanoma,990 nM
same,TGI,UACC-62 melanoma,2370 nM
same,GI50,UO-31 renal,1350 nM
same,TGI,UO-31 renal,3300 nM
